Laboratory results taken from publication PMC11224465, “Characterization of the somatostatin system in tilapia: implications for growth and reproduction” (Frontiers in Endocrinology, 2024).
Several values for one entry are separate records, joined by “and”; a condition that tells them apart may be missing. Equal entries are not always repeated. Entries after “also recorded” stand apart in the source; their conditions may differ. Positions of bridges follow the written chain, without caps; N, C: chain ends. Non-standard residues stand in square brackets, D forms with d. Residues, ends and D or L forms follow the SMILES beside them. *: point of attachment. Ahp = NCCCCCCC(=O)O; Bn = c1ccc(C*)cc1

Assays:
tilapia SSTR2a [1] = molecular target: T1, tilapia SSTR2a (Oreochromis niloticus, UniProt I3KUD5); test: Cre-luc reporter assay, ligand plus forskolin, COS-7 cells transfected with SSTR2a; type: cell-based, Nile tilapia (Oreochromis niloticus); settings: FSK 20 μM, subnanomolar concentrations
Source text: (§1) The signaling pathways of SSTRs were studied by inserting the entire coding sequence of the four receptors expressed in the pituitary (SSTR2a, SSTR3a, SSTR5b, and SSTR3b; accession nos. XP_003438730.1, XP_019215873.1, XP_003452896.1, and XP_019213185.1, respectively; Table 1 ) into pcDNA3.1 (Invitrogen) and verified by cloning and sequencing. The sequences were obtained from GenScript Biotech based on sequence information retrieved from GenBank. The procedures for transient transfection of the different cell lines and receptor stimulation have been described previously ([35], [36]). In brief, COS-7 cells were cotransfected with a luciferase reporter plasmid (Cre-luc; 3 µg) and one of the SSTRs (3 µg). As a control treatment, the […] (data not shown). […] Six hours after stimulation, the cells were analyzed using the GloMax multidetection system (Promega).

tilapia SSTR3a [2] = molecular target: T2, tilapia SSTR3a (Oreochromis niloticus, UniProt I3K8H1); test: Cre-luc reporter assay, ligand plus forskolin, COS-7 cells transfected with SSTR3a; type: cell-based, Nile tilapia (Oreochromis niloticus); settings: FSK 20 μM, mean ± SEM, read-out: IC50 on SST-R3a (Cre-luciferase)
T2 sequence (I3K8H1 1-482): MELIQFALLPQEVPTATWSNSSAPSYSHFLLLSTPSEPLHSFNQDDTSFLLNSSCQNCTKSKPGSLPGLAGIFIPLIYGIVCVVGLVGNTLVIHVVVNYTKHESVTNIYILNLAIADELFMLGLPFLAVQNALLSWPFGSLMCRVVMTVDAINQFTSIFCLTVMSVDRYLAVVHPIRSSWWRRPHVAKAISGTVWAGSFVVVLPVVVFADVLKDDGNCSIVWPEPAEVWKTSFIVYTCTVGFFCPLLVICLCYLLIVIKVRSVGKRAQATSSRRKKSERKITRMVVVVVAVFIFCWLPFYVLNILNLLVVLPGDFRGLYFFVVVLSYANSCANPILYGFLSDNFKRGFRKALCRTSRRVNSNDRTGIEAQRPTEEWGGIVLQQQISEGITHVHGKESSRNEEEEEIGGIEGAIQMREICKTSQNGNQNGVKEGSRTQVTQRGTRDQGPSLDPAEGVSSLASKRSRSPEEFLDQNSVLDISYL
Source text: as §1

tilapia SSTR5b [3] = molecular target: T3, tilapia SSTR5b (Oreochromis niloticus, UniProt I3J1C6); test: Cre-luc reporter assay, ligand plus forskolin, COS-7 cells transfected with SSTR5b; type: cell-based, Nile tilapia (Oreochromis niloticus); settings: FSK 20 μM, mean ± SEM, read-out: IC50 on SST-R5b (Cre-luciferase)
T3 sequence (I3J1C6 1-359): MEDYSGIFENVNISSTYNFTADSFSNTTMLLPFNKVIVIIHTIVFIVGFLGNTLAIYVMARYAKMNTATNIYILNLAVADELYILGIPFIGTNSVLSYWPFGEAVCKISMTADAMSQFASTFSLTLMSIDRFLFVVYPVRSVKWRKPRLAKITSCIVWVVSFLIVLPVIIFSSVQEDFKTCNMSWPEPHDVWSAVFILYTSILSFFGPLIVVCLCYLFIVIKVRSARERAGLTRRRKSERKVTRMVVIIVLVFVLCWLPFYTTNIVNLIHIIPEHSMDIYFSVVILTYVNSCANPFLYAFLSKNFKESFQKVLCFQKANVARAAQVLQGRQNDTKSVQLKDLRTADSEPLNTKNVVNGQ
Source text: as §1

tilapia SSTR2a [4] = molecular target: T1, tilapia SSTR2a; test: Cre-luc reporter assay, agonist/antagonist combination plus forskolin, COS-7 cells with SSTR2a; type: cell-based, Nile tilapia (Oreochromis niloticus); settings: mean ± SEM
Source text: as §1
(§2) In another set of assays, the SST receptors were exposed to increasing concentrations of cyclosomatostatin, an SSTR antagonist (0–1000 nM; each in triplicate), in combination with octreotide, an SSTR agonist (10 nM), and FSK (20 μM), or increasing concentrations of octreotide (0–1000 nM; each in triplicate) in combination with cyclosomatostatin (10 nM) and FSK (20 μM). […]

tilapia SSTR3a [5] = molecular target: T2, tilapia SSTR3a; test: Cre-luc reporter assay, agonist/antagonist combination plus forskolin, COS-7 cells with SSTR3a; type: cell-based, Nile tilapia (Oreochromis niloticus); settings: in presence of octreotide 10 nM and FSK 20 μM, mean ± SEM, read-out: EC50 on SST-R3a (Cre-luciferase)
Source text: as §1, §2

tilapia SSTR5b [6] = molecular target: T3, tilapia SSTR5b; test: Cre-luc reporter assay, agonist/antagonist combination plus forskolin, COS-7 cells with SSTR5b; type: cell-based, Nile tilapia (Oreochromis niloticus); settings: mean ± SEM
Source text: as §1, §2

tilapia SSTR3b [7] = molecular target: T4, tilapia SSTR3b (Oreochromis niloticus, UniProt I3L056); test: Cre-luc reporter assay, agonist/antagonist combination plus forskolin, COS-7 cells with SSTR3b; type: cell-based, Nile tilapia (Oreochromis niloticus)
Source text: as §1
In another set of assays, the SST receptors were exposed to increasing concentrations of cyclosomatostatin, an SSTR antagonist (0–1000 nM; each in triplicate), in combination with octreotide, an SSTR agonist (10 nM), and FSK (20 μM), or increasing concentrations of octreotide (0–1000 nM; each in triplicate) in combination with cyclosomatostatin (10 nM) and FSK (20 μM). Three individual experiments were conducted using distinct batches of COS-7 cells for each experiment and including three replicates for every concentration.

FSH plasma levels = test: In vivo effect on FSH plasma levels (ELISA) after IP injection; design: species or system Nile tilapia (Oreochromis niloticus); settings: female tilapia, 100 µg/kg IP, sampled 2, 4, 6, 24 h
Experimental: (§3) Adult female tilapia (body weight 89.29 ± 32.93 g) were injected IP with saline, cyclosomatostatin, or octreotide (100 μg/kg; n = 8 fish per group). The fish were bled from the caudal blood vessels into heparinized syringes at 0, 2, 4, 6, and 24 h after injection. Blood was centrifuged at 3,200 rpm for 30 min at 4°C to obtain plasma samples, which were stored at -20°C until assayed. This standard protocol was used previously to test the effect of GnRH and other hypothalamic neuropeptides on circulating levels of LH, FSH, and GH in tilapia ([33], [37], [38]). Three independent experiments were performed for each treatment. Plasma levels of LH, FSH, and GH were measured by specific competitive ELISAs developed for tilapia ([39], [40]) based on recombinant ([…] or rtiGH. The […] produced against […]β ([40]), or rtGH ([39]), and […]βα ([37]) or rtGH ([39]) was used to generate a standard curve. The sensitivity of plasma measurements was 15.84 pg/ml for LH, 0.24 pg/ml for FSH, and 35.0 pg/ml for GH.

LH plasma levels = test: In vivo effect on LH plasma levels (ELISA) after IP injection; design: species or system Nile tilapia (Oreochromis niloticus); settings: female tilapia, 100 µg/kg IP, sampled 2, 4, 6, 24 h
Experimental: as §3

GH plasma levels = test: In vivo effect on GH plasma levels (ELISA) after IP injection; design: species or system Nile tilapia (Oreochromis niloticus); settings: female tilapia, 100 µg/kg IP, sampled 2, 4, 6, 24 h
Experimental: as §3

tilapia SSTR3b [8] = molecular target: T4, tilapia SSTR3b; test: Cre-luc reporter assay, ligand plus forskolin, COS-7 cells transfected with SSTR3b; type: cell-based, Nile tilapia (Oreochromis niloticus); settings: FSK 20 μM alone as backdrop
Experimental: In brief, COS-7 cells were cotransfected with a luciferase reporter plasmid (Cre-luc; 3 µg) and one of the SSTRs (3 µg). […] Six hours after stimulation, the cells were analyzed using the GloMax multidetection system (Promega).

human SSTR2 = test system: human SSTR2; design: method as in PMID 8532003; settings: cited from earlier work
SSTR5 = test system: SSTR5; design: method as in PMID 8532003; settings: human; cited from earlier work
SSTR3a = test system: SSTR3a; design: method as in PMID 8532003; settings: cited from earlier work
aggressive behavior = test system: aggressive behavior; design: method as in PMID 16887916; settings: cichlid fish, 4 mg/kg; cited from earlier work

T4 sequence (I3L056 29-511): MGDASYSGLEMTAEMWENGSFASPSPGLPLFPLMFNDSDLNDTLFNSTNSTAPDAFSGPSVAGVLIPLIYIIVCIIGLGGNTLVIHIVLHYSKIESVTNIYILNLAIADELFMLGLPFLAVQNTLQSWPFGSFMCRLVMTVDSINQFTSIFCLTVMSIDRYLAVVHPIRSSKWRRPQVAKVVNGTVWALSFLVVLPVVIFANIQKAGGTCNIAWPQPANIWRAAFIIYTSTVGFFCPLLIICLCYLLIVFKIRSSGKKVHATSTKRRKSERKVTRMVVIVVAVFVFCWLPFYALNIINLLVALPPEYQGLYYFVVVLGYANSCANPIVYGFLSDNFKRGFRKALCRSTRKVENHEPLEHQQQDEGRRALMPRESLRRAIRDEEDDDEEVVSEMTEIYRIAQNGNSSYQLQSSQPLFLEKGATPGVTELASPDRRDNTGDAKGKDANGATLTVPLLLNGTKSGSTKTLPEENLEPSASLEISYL
T1 sequence (I3KUD5 1-379): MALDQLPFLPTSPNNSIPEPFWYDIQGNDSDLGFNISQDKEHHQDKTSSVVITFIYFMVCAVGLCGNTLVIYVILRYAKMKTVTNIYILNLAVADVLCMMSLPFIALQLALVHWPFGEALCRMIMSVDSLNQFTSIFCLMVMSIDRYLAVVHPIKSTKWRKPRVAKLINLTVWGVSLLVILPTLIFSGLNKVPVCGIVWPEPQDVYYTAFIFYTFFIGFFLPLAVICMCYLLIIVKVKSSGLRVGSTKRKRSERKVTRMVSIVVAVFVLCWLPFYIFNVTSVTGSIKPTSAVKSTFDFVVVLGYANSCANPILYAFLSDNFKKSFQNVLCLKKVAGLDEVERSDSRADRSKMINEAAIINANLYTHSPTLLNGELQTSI

C[C@H](N)C(=O)N1CCC[C@H]1C(=O)N[C@H]1CSSC[C@@H](C(=O)O)NC(=O)[C@H](CO)NC(=O)[C@H]([C@@H](C)O)NC(=O)[C@H](Cc2ccccc2)NC(=O)[C@H]([C@@H](C)O)NC(=O)[C@H](CCCCN)NC(=O)[C@H](Cc2c[nH]c3ccccc23)NC(=O)[C@H](Cc2ccccc2)NC(=O)[C@H](Cc2ccccc2)NC(=O)[C@H](CC(N)=O)NC(=O)[C@H](CCCCN)NC1=O [SST6] (H-APCKNFFWKTFTSC-OH; disulfide 3-14; N-terminus and C-terminus assumed)
Effect on tiSSTR2a Cre-luc activity (tilapia SSTR2a [1]): inhibited | IC50 (tilapia SSTR3a [2]): 3.75 ± 0.04 nM | IC50 (tilapia SSTR5b [3]): 906.1 ± 0.5 nM

C[C@@H](OCc1ccccc1)[C@@H]1NC(=O)[C@H](CCCCN)NC(=O)[C@@H](Cc2c[nH]c3ccccc23)NC(=O)[C@H](Cc2ccccc2)NC(=O)CCCCCCNC1=O [Cyclosomatostatin, cyclosomatostatin] (cyclo([Ahp]F[dW]KT(Bn)); ring closure inferred)
EC50 (tilapia SSTR2a [4]; in presence of octreotide 10 nM and FSK 20 μM, read-out: EC50 on SST-R2a (Cre-luciferase)): 189 ± 4.34 nM | EC50 (tilapia SSTR3a [5]): 0.1 ± 0.001 nM | EC50 (tilapia SSTR5b [6]; in presence of octreotide 10 nM and FSK 20 μM, read-out: EC50 on SST-R5b (Cre-luciferase)): 2.15 ± 0.009 nM | EC50 (tilapia SSTR3b [7]; COS-7 cells, in presence of octreotide 10 nM and FSK 20 μM, mean ± SEM, read-out: EC50 on SST-R3b (Cre-luciferase)): 46.2 ± 3.82 nM | Activation of SSTR3b (Cre-luc) (tilapia SSTR3b [7]; in the presence of both FSK and octreotide): efficient activation | FSH plasma levels vs control (FSH plasma levels): increased | FSH plasma levels vs control (FSH plasma levels; listed as SSTR antagonist): remained elevated for 6 h | LH plasma levels vs control (LH plasma levels): increased | LH plasma levels vs control (LH plasma levels; listed as SSTR antagonist): returned to baseline after 4 h | GH plasma levels vs control (GH plasma levels): the same as in the control fish

C[C@@H](O)[C@@H]1NC(=O)[C@H](CCCCN)NC(=O)[C@@H](Cc2c[nH]c3ccccc23)NC(=O)[C@H](Cc2ccccc2)NC(=O)[C@@H](NC(=O)[C@H](N)Cc2ccccc2)CSSC[C@@H](C(=O)N[C@H](CO)[C@@H](C)O)NC1=O [Octreotide, octreotide]
Effect on tiSSTR2a Cre-luc activity (tilapia SSTR2a [1]): inhibited | IC50 (tilapia SSTR3a [2]): 0.004 nM | IC50 (tilapia SSTR5b [3]): 906 nM and 157 nM | Effect on SSTR3b Cre-luc activity (tilapia SSTR3b [8]): no discernible activation | IC50 (tilapia SSTR2a [4]; in presence of cyclosomatostatin 10 nM and FSK 20 μM, read-out: IC50 on SST-R2a (Cre-luciferase)): 0.81 ± 0.01 nM | IC50 (tilapia SSTR5b [6]; in presence of cyclosomatostatin 10 nM and FSK 20 μM, read-out: IC50 on SST-R5b (Cre-luciferase)): 17.4 ± 3.14 nM | IC50 (tilapia SSTR3b [7]; COS-7 cells, in presence of cyclosomatostatin 10 nM and FSK 20 μM, mean ± SEM, read-out: IC50 on SST-R3b (Cre-luciferase)): 0.35 ± 0.04 nM | FSH plasma levels vs control (FSH plasma levels): reduced | FSH plasma levels vs control (FSH plasma levels; listed as octreotide): decreased | LH plasma levels vs control (LH plasma levels): remained similar to the control; also recorded: no significant effect | LH plasma levels vs control (LH plasma levels; listed as octreotide): remained unaffected | GH plasma levels vs control (GH plasma levels): significantly decreased | Affinity to human SSTR2 (human SSTR2): high affinity | Affinity to SSTR5 (SSTR5): high affinity | Affinity to SSTR3a (SSTR3a): moderate affinity | Aggressive behavior (aggressive behavior): decrease

CC(C)C[C@@H]1NC(=O)CNC(=O)[C@H](CCCCN)NC(=O)[C@H](Cc2c[nH]c3ccccc23)NC(=O)[C@H](Cc2ccc(O)cc2)NC(=O)[C@H](Cc2ccccc2)NC(=O)[C@H](CC(N)=O)NC(=O)[C@H](CCCCN)NC(=O)[C@@H](NC(=O)CNC(=O)[C@H](C)N)CSSC[C@@H](C(=O)O)NC(=O)[C@H](CO)NC(=O)[C@H]([C@@H](C)O)NC1=O [SST3] (H-AGCKNFYWKGLTSC-OH; disulfide 3-14; N-terminus and C-terminus assumed)
Effect on tiSSTR2a Cre-luc activity (tilapia SSTR2a [1]): inhibited | IC50 (tilapia SSTR3a [2]): 572.9 ± 0.1 nM | IC50 (tilapia SSTR5b [3]): 720.2 ± 0.5 nM
